In ChEMBL document CHEMBL1126427, “Synthesis of a potent, reversible inhibitor of interleukin-1 converting enzyme” (Bioorg Med Chem Lett, 1992):

Molecular target: T1, Caspase-1 (Homo sapiens, UniProt P29466)
T1 sequence (P29466 whole entry): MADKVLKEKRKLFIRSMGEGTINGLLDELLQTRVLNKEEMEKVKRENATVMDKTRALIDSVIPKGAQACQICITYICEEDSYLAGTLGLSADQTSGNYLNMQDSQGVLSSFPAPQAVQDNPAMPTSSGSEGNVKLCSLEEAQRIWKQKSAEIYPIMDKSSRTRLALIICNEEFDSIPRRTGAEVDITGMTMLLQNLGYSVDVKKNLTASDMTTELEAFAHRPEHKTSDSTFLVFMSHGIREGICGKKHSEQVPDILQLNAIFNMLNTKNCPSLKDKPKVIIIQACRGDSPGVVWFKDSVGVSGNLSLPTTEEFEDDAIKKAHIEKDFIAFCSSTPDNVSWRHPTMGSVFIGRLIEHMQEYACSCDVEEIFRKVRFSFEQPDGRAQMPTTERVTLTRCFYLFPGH
Experiment: The compound was tested for inhibition of IL-1 beta converting enzyme in whole human blood.

For `CC(=O)N[C@@H](Cc1ccc(O)cc1)C(=O)N[C@H](C(=O)N[C@@H](C)C(=O)N[C@H](C=O)CC(=O)O)C(C)C`, the Ki was 0.76 nM.
